Measured values: patent publication US11896009B2, “Bioactive composition for improving stress tolerance of plants” (FYTEKO, priority 2015, dated 2024)

Assay: Antioxidant test, DPPH radical scavenging (Example 9)
Type: biochemical
Method: The antioxidant activity of oligoferulates prepared as described in example 1, ferulic acid (W518301, Sigma-Aldrich), gallic acid (27645, Sigma-Aldrich) and ascorbic acid (A0278, Sigma-Aldrich) was determined using a method based on the scavenging of the stable radical 2,2-diphenyl-1-picrylhydrazyl (DPPH) (Brand Williams et al, Food Sci Technol-Lebens Wissens Technol. 1995; 28:25-30) and the results expressed as IC50 (concentration of antioxidant which reduces the free radical DPPH⋅ about 50%). This method is frequently used to predict the antioxidant activities of different molecules.

Row | antioxidant activity IC50 (concentration which reduces the free radical DPPH about 50%) [µg/mL] | SMILES
1 | 5 | O=C1O[C@H]([C@@H](O)CO)C(O)=C1O [ascorbic acid]
2 | 25 | COc1cc(/C=C/C(=O)O)ccc1O [ferulic acid]
3 | 2 | O=C(O)c1cc(O)c(O)c(O)c1 [gallic acid]
